From PubChem BioAssay (NCI)
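GI50 is the concentration that inhibits growth by half. TGI: concentration producing complete growth inhibition.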

What was measured:
Experiment in all cases: growth of human tumour cells (NCI), 384-well format
SF-268 CNS = test system: SF-268 CNS
NCI-H322M lung = test system: NCI-H322M lung
HCT-15 colon = test system: HCT-15 colon
BT-549 breast = test system: BT-549 breast
SK-OV-3 ovarian = test system: SK-OV-3 ovarian
OVCAR-3 ovarian = test system: OVCAR-3 ovarian
MALME-3M melanoma = test system: MALME-3M melanoma
ACHN renal = test system: ACHN renal
NCI-H522 lung = test system: NCI-H522 lung
SF-295 CNS = test system: SF-295 CNS
DU-145 prostate = test system: DU-145 prostate
SF-539 CNS = test system: SF-539 CNS
EKVX NSCLC = test system: EKVX NSCLC
T-47D breast = test system: T-47D breast
KM12 colon = test system: KM12 colon
HOP-62 NSCLC = test system: HOP-62 NSCLC
RXF 393 renal = test system: RXF 393 renal
CAKI-1 renal = test system: CAKI-1 renal
NCI-H460 NSCLC = test system: NCI-H460 NSCLC
MDA-MB-468 breast = test system: MDA-MB-468 breast
SK-MEL-28 melanoma = test system: SK-MEL-28 melanoma
IGROV1 ovarian = test system: IGROV1 ovarian
UO-31 renal = test system: UO-31 renal
PC-3 prostate = test system: PC-3 prostate
TK-10 renal = test system: TK-10 renal
MDA-MB-231 breast = test system: MDA-MB-231 breast
A549 NSCLC = test system: A549 NSCLC
NCI/ADR-RES ovarian = test system: NCI/ADR-RES ovarian
MDA-MB-435 melanoma = test system: MDA-MB-435 melanoma
786-0 renal = test system: 786-0 renal
OVCAR-8 ovarian = test system: OVCAR-8 ovarian
K-562 leukemia = test system: K-562 leukemia
M14 melanoma = test system: M14 melanoma
A498 renal = test system: A498 renal
OVCAR-5 ovarian = test system: OVCAR-5 ovarian
HS 578T breast = test system: HS 578T breast
MCF7 breast = test system: MCF7 breast
SN12C renal = test system: SN12C renal
MOLT-4 leukemia = test system: MOLT-4 leukemia
HCC-2998 colon = test system: HCC-2998 colon
UACC-257 melanoma = test system: UACC-257 melanoma
HT29 colon = test system: HT29 colon
OVCAR-4 ovarian = test system: OVCAR-4 ovarian
SR leukemia = test system: SR leukemia
COLO 205 colon = test system: COLO 205 colon
RPMI-8226 leukemia = test system: RPMI-8226 leukemia
UACC-62 melanoma = test system: UACC-62 melanoma
HOP-92 NSCLC = test system: HOP-92 NSCLC
NCI-H23 lung = test system: NCI-H23 lung
SW-620 colon = test system: SW-620 colon
SNB-19 CNS = test system: SNB-19 CNS
LOX IMVI melanoma = test system: LOX IMVI melanoma
SNB-75 CNS = test system: SNB-75 CNS
NCI-H226 lung = test system: NCI-H226 lung
U251 glioblastoma = test system: U251 glioblastoma
CCRF-CEM leukemia = test system: CCRF-CEM leukemia
SK-MEL-5 melanoma = test system: SK-MEL-5 melanoma
HL-60(TB) leukemia = test system: HL-60(TB) leukemia

Which results are given for CNS(=O)(=O)Nc1nccc(Cc2c(C)c3ccc(Oc4ncccn4)cc3oc2=O)c1F?
GI50 (SF-268 CNS): > 100 µM; TGI (SF-268 CNS): > 100 µM; GI50 (NCI-H322M lung): 0.549 µM; TGI (NCI-H322M lung): > 100 µM; GI50 (HCT-15 colon): 4.39 µM; TGI (HCT-15 colon): > 100 µM; GI50 (BT-549 breast): 39.6 µM; TGI (BT-549 breast): > 100 µM; GI50 (SK-OV-3 ovarian): 21.4 µM; TGI (SK-OV-3 ovarian): > 100 µM; GI50 (OVCAR-3 ovarian): > 100 µM; TGI (OVCAR-3 ovarian): > 100 µM; GI50 (MALME-3M melanoma): < 0.01 µM; TGI (MALME-3M melanoma): 0.0124 µM; GI50 (ACHN renal): 4.16 µM; TGI (ACHN renal): > 100 µM; GI50 (NCI-H522 lung): 12.5 µM; TGI (NCI-H522 lung): > 100 µM; GI50 (SF-295 CNS): 68.6 µM; TGI (SF-295 CNS): > 100 µM; GI50 (DU-145 prostate): 26.4 µM; TGI (DU-145 prostate): > 100 µM; GI50 (SF-539 CNS): 12.9 µM; TGI (SF-539 CNS): > 100 µM; GI50 (EKVX NSCLC): 6.39 µM; TGI (EKVX NSCLC): > 100 µM; GI50 (T-47D breast): 3.67 µM; TGI (T-47D breast): 83.3 µM; GI50 (KM12 colon): 0.181 µM; TGI (KM12 colon): > 100 µM; GI50 (HOP-62 NSCLC): 0.289 µM; TGI (HOP-62 NSCLC): > 100 µM; GI50 (RXF 393 renal): 4.82 µM; TGI (RXF 393 renal): > 100 µM; GI50 (CAKI-1 renal): 0.319 µM; TGI (CAKI-1 renal): > 100 µM; GI50 (NCI-H460 NSCLC): 10.2 µM; TGI (NCI-H460 NSCLC): > 100 µM; GI50 (MDA-MB-468 breast): 1.75 µM; TGI (MDA-MB-468 breast): 5.95 µM; GI50 (SK-MEL-28 melanoma): 0.0137 µM; TGI (SK-MEL-28 melanoma): 0.0616 µM; GI50 (IGROV1 ovarian): 0.29 µM; TGI (IGROV1 ovarian): > 100 µM; GI50 (UO-31 renal): 14 µM; TGI (UO-31 renal): > 100 µM; GI50 (PC-3 prostate): > 100 µM; TGI (PC-3 prostate): > 100 µM; GI50 (TK-10 renal): 7.49 µM; TGI (TK-10 renal): > 100 µM; GI50 (MDA-MB-231 breast): 0.0731 µM; TGI (MDA-MB-231 breast): 43.8 µM; GI50 (A549 NSCLC): 0.42 µM; TGI (A549 NSCLC): > 100 µM; GI50 (NCI/ADR-RES ovarian): 15.2 µM; TGI (NCI/ADR-RES ovarian): > 100 µM; GI50 (MDA-MB-435 melanoma): 0.0305 µM; TGI (MDA-MB-435 melanoma): > 100 µM; GI50 ([…]-0 renal): 98.4 µM; TGI (786-0 renal): > 100 µM; GI50 (OVCAR-8 ovarian): 39.2 µM; TGI (OVCAR-8 ovarian): > 100 µM; GI50 (K-562 leukemia): 0.433 µM; TGI (K-562 leukemia): > 100 µM; GI50 (M14 melanoma): < 0.01 µM; TGI (M14 melanoma): 0.102 µM; GI50 (A498 renal): 13.3 µM; TGI (A498 renal): > 100 µM; GI50 (OVCAR-5 ovarian): 0.041 µM; TGI (OVCAR-5 ovarian): > 100 µM; GI50 (HS 578T breast): 7.8 µM; TGI (HS 578T breast): > 100 µM; GI50 (MCF7 breast): > 100 µM; TGI (MCF7 breast): > 100 µM; GI50 (SN12C renal): 0.0724 µM; TGI (SN12C renal): > 100 µM; GI50 (MOLT-4 leukemia): 13 µM; TGI (MOLT-4 leukemia): 82.7 µM; GI50 (HCC-2998 colon): 0.0142 µM; TGI (HCC-2998 colon): 0.398 µM; GI50 (UACC-257 melanoma): 0.012 µM; TGI (UACC-257 melanoma): 0.0529 µM; GI50 (HT29 colon): 0.0418 µM; TGI (HT29 colon): > 100 µM; GI50 (OVCAR-4 ovarian): 0.413 µM; TGI (OVCAR-4 ovarian): > 100 µM; GI50 (SR leukemia): 2.92 µM; TGI (SR leukemia): 40.9 µM; GI50 (COLO 205 colon): 0.0151 µM; TGI (COLO 205 colon): 0.586 µM; GI50 (RPMI-8226 leukemia): 0.0415 µM; TGI (RPMI-8226 leukemia): 20.5 µM; GI50 (UACC-62 melanoma): 0.012 µM; TGI (UACC-62 melanoma): 0.138 µM; GI50 (HOP-92 NSCLC): 0.236 µM; TGI (HOP-92 NSCLC): 3.93 µM; GI50 (NCI-H23 lung): 0.0459 µM; TGI (NCI-H23 lung): 2.54 µM; GI50 (SW-620 colon): 0.0167 µM; TGI (SW-620 colon): > 100 µM; GI50 (SNB-19 CNS): 20.9 µM; TGI (SNB-19 CNS): > 100 µM; GI50 (LOX IMVI melanoma): 0.164 µM; TGI (LOX IMVI melanoma): 5.49 µM; GI50 (SNB-75 CNS): > 100 µM; TGI (SNB-75 CNS): > 100 µM; GI50 (NCI-H226 lung): 0.848 µM; TGI (NCI-H226 lung): > 100 µM; GI50 (U251 glioblastoma): 5.57 µM; TGI (U251 glioblastoma): > 100 µM; GI50 (CCRF-CEM leukemia): 5.06 µM; TGI (CCRF-CEM leukemia): 49.1 µM; GI50 (SK-MEL-5 melanoma): 0.048 µM; TGI (SK-MEL-5 melanoma): 9.68 µM; GI50 (HL-60(TB) leukemia): < 0.01 µM; TGI (HL-60(TB) leukemia): > 100 µM
